8 molecules from patent US9834543B2, “Indazoles and use thereof” (Purdue Pharma L.P., priority 2013, dated 2017) can be followed below.

One experiment has as its target human Nav1.7 (Homo sapiens (Human), UniProt Q15858). The experiment in a line: FLIPR or FLIPR TETRA sodium dye assay with KCl and test article pre-incubation (sodium mobilization). It is filed as cell-based.
For the next experiment, the target named is hNav1.7 (Homo sapiens (Human), UniProt Q15858). The experiment in a line: EP (electrophysiology) assay, whole-cell patch clamp in hNav1.7 expressing HEK-293 cells. It is filed as cell-based. Conditions: affinity for the inactivated state of the channel; hNav1.7 HEK-293; read-out: Nav1.7 Activity (μM) EP assay Ki.
hNav1.7, sequence (Q15858 other isoform, or with tags, fused parts or gaps): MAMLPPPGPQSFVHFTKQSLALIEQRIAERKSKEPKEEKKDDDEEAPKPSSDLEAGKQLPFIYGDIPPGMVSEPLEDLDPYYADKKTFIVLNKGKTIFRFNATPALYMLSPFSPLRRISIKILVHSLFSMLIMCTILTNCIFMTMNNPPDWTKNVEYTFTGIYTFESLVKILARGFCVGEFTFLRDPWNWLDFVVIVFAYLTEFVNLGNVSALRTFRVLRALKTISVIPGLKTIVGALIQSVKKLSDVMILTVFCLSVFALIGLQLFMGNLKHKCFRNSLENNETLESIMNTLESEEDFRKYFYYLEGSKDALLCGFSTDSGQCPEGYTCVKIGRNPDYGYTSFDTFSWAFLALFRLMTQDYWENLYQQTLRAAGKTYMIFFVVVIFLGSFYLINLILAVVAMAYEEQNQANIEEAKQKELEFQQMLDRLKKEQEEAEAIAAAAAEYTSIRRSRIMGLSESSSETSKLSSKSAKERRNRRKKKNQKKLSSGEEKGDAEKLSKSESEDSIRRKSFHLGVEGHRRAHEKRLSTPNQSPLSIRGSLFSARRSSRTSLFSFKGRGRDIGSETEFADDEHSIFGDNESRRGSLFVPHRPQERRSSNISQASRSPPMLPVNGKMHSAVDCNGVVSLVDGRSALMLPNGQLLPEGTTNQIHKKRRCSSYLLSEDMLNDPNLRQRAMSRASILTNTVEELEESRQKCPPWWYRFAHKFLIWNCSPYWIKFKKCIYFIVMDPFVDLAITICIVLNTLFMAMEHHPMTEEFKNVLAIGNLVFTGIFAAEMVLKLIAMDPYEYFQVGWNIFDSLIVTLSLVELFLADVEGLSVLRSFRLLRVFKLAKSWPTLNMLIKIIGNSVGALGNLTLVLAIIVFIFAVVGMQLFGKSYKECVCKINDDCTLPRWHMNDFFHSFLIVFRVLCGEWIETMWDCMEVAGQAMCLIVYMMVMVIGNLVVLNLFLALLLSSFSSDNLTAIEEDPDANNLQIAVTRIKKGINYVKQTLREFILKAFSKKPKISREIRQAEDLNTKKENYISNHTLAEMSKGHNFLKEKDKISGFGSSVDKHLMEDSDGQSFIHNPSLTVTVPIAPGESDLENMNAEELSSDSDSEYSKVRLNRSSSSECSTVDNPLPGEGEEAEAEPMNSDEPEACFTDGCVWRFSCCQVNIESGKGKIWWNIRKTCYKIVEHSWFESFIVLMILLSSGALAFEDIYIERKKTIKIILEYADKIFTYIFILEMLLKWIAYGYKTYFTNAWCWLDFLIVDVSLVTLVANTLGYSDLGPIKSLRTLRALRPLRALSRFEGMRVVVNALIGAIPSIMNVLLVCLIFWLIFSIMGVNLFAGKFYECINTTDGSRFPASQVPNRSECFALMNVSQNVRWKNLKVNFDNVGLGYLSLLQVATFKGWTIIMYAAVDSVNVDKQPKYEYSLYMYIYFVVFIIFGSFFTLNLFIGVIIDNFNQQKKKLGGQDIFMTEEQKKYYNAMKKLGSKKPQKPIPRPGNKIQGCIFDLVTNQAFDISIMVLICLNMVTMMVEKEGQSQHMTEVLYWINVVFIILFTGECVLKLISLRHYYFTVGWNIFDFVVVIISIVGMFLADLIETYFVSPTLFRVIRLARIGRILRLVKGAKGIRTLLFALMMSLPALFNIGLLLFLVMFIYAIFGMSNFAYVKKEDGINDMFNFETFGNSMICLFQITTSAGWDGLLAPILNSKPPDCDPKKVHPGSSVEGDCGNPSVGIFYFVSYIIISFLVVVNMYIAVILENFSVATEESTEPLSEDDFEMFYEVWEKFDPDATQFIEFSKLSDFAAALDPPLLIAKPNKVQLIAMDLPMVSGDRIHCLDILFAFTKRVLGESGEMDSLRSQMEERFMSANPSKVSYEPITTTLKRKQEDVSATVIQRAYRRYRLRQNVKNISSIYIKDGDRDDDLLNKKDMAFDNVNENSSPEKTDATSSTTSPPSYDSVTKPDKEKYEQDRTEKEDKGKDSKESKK

Read-outs that look alike come from different tables or passages of the source.

human Nav1.7, sequence (Q15858 with tags, fused parts or gaps limits assumed): as the sequence (Q15858 other isoform, or with tags, fused parts or gaps) above
Method for hNav1.7: Cells Manual Electrophysiology: The hNav1.7 expressing HEK-293 cells are plated on 35 mm culture dishes pre-coated with poly-D-lysine in standard DMEM culture media (Mediatech, Inc., Herndon, Va.) and incubated in a 5% CO2 incubator at 37° C. Cultured cells are used approximately 12-48 h after plating.
The hNav1.7 expressing HEK-293 cells are plated on tissue culture flasks in standard DMEM culture media (Mediatech, Inc.) and incubated in a 5% CO2 incubator at 37° C. Cultured cells are used approximately 12-48 hours after plating.
On the day of experimentation, the 35 mm dish is placed on the stage of an inverted microscope equipped with a perfusion system that continuously perfuses the culture dish with fresh recording media. A gravity driven superfusion system is used to apply test solutions directly to the cell under evaluation. This “shooter” system consists of an array of glass pipette glass connected to a motorized horizontal translator. The outlet of the shooter is positioned approximately 100 μm from the cell of interest.
Gigaseals are formed and the whole-cell configuration is established in voltage clamp mode, and membrane currents generated by hNav1.7 channels are recorded. […] Signals are sampled at 50 kHz and low pass filtered at 3 kHz.
Gigaseals are formed and the whole-cell configuration is established in voltage clamp mode, and membrane currents generated by hNav1.7 are recorded. […]
After a stable baseline is established, the test compound is applied and block of the current elicited by the test pulse assessed. […] An estimate of the Ki is calculated as follows: Ki=[drug]*{FR/(1−FR)}, Eq. 1 where [drug] is the concentration of a drug, and FR=I(after drug)/I(control), Eq. 2
where I is the peak current amplitude. If multiple concentrations were used, Ki is determined from the fit of a logistic equation to FRs plotted against corresponding drug concentrations. […]
The compound testing protocol is a series of 10 ms depolarizations from the Vh1 (determined from the SSIN) to the Vt (determined from the I-V protocol) repeated every 10-15 seconds. […]

For orientation: IC50 means the point on the concentration scale where inhibition reaches its midpoint. At human Nav1.7, `Cn1ncc2c(Oc3ccc(-c4cccc(C(N)=O)n4)cc3)ccc(Cl)c21` [Compound 22, 6-(4-((7-chloro-1-methyl-1H-indazol-4-yl)oxy)phenyl)picolinamide] registered a concentration for half-maximal inhibition (IC50) of 0.53 ± 0.034 µM.
`Cn1ncc2c(Oc3ccc(-c4cc([C@@H](O)CO)cc(C(N)=O)n4)cc3)ccc(F)c21` [Compound 40, (R)-4-(1,2-dihydroxyethyl)-6-(4-((7-fluoro-1-methyl-1H-indazol-4-yl)oxy)phenyl)picolinamide] returned an IC50 at human Nav1.7 of 0.596 ± 0.076 µM.
Regarding `Cn1ncc2c(Oc3ccc(-c4nc(C(N)=O)cc([C@H](O)CO)n4)cc3)ccc(Cl)c21` [Compound 34, (S)-2-(4-((7-chloro-1-methyl-1H-indazol-4-yl)oxy)phenyl)-6-(1,2-dihydroxyethyl)pyrimidine-4-carboxamide], on hNav1.7, the Ki is 0.12 ± 0.027 µM. This molecule also yielded a half-inhibitory concentration (IC50) on human Nav1.7 of 0.157 ± 0.023 µM.
As for `Cn1ncc2c(Oc3ccc(-c4cc([C@H](O)CO)cc(C(N)=O)n4)cc3)ccc(F)c21` [Compound 39, (S)-4-(1,2-dihydroxyethyl)-6-(4-((7-fluoro-1-methyl-1H-indazol-4-yl)oxy)phenyl)picolinamide], the Ki on hNav1.7 was 0.47 ± 0.046 µM. Besides, the concentration for half-maximal inhibition (IC50) on human Nav1.7 came out at 0.797 ± 0.051 µM.
On to `Cn1ncc2c(Oc3cc(F)c(S(=O)(=O)Nc4nncs4)cc3Cl)ccc(Cl)c21` [Compound 41, 5-chloro-4-((7-chloro-1-methyl-1H-indazol-4-yl)oxy)-2-fluoro-N-(1,3,4-thiadiazol-2-yl)benzenesulfonamide], for which the half-maximal inhibitory concentration (IC50) on human Nav1.7 (recombinant human Nav1.7 in HEK293, veratridine and scorpion venom agonists) was above 20 µM.
`Cn1ncc2c(Oc3ccc(-c4nc(N[C@H]5CCNC5=O)cc(C(N)=O)n4)cc3)ccc(Cl)c21` [Compound 20, (S)-2-(4-((7-chloro-1-methyl-1H-indazol-4-yl)oxy)phenyl)-6-((2-oxopyrrolidin-3-yl)amino)pyrimidine-4-carboxamide] registered an IC50 on human Nav1.7 of 0.405 ± 0.06 µM.
Turning to `Cn1ncc2c(Oc3ccc(S(=O)(=O)Nc4nncs4)cc3)ccc(Cl)c21` [Compound 42, 4-((7-chloro-1-methyl-1H-indazol-4-yl)oxy)-N-(1,3,4-thiadiazol-2-yl)benzenesulfonamide], the Ki at hNav1.7 was 9.01 ± 4.76 µM. The molecule further showed an IC50 at human Nav1.7 above 20 µM.
`Cn1ncc2c(Oc3ccc(-c4cc([C@H](O)CO)cc(C(N)=O)n4)cc3)ccc(Cl)c21` [Compound 38, (S)-6-(4-((7-chloro-1-methyl-1H-indazol-4-yl)oxy)phenyl)-4-(1,2-dihydroxyethyl)picolinamide]: the IC50 against human Nav1.7 came out at 0.45 ± 0.026 µM.
